{"source": "patent US20230365652A1", "about": "“Nucleic Acid Constructs, Viral Vectors and Viral Particles” (priority 2020, published 2023)", "target": "T1, GAT-1 (Homo sapiens, UniProt P30531)", "T1 construct": "expressed in transfected cells; host or cells: SH-SY5Y (human neuroblastoma cell line), transient transfection with Lipofectamine 3000", "T1 sequence (P30531 whole entry)": "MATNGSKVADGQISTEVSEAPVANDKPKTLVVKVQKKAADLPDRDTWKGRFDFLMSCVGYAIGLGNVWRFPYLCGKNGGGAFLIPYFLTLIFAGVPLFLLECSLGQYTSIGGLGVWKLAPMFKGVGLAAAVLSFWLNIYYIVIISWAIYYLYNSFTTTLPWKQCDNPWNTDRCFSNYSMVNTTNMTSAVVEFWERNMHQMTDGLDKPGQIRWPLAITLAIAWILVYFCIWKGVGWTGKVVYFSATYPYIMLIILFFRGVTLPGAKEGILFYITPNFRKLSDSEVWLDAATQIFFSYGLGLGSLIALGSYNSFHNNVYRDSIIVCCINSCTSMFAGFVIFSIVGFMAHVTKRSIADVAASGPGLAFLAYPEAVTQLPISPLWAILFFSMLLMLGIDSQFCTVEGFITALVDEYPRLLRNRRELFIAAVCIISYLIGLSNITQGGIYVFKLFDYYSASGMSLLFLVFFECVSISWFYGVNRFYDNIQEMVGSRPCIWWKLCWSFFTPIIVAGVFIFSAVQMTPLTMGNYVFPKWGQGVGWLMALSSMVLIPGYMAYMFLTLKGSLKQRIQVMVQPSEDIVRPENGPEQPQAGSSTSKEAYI", "assay": "Tritiated [3H]GABA uptake assay in transfected SH-SY5Y cells", "type": "cell-based", "settings": "CI-966 100 μM in 0.8% DMSO, 10 min at 37° C.", "from_the_text": "SH-SY5Y cells (human neuroblastoma cell line) were transfected with the constructs as described in Example 1 using Lipofectamine 3000 and following manufacturer instructions. The positive control consisted of a plasmid encoding hSLC6A1 under the control of a CAG promoter expressed together with a tagRFP fluorescent protein whilst as negative control (and a matching plasmid lacking the hSLC6A1 sequence. At 2 days post transfection, SH-SY5Y cells were attested for either ICC analysis of GABA uptake assay. Briefly, ICC analysis was performed as follow: cells were fixed with 4% paraformaldehyde and stained with the primary antibodies rabbit monoclonal anti-GAT-1 (Ref: ab177483; Abcam™, Cambridge, MA, USA) at 1:250. Cells were then stained with goat anti-rabbit secondary antibodies conjugated to Alexa Fluor 488 at 1:1,000 prior to imaging. For the GABA uptake assay, cells were previously seeded on scintillating microplates. […] Cells were then treated with a mixture of tritiated and cold GABA ([3H]GABA 8 μCi/ml and 15 μM GABA final concentrations) for 10 min at 37° C. and the reaction was stopped using 1 mM cold GABA before quantification of the radioactivity with a Microbeta instrument (Perkin Elmer)."}
{"compound": "O=C(O)C1=CCCN(CCOC(c2ccc(C(F)(F)F)cc2)c2ccc(C(F)(F)F)cc2)C1", "note": "[GAT-1 inhibitor]", "values": [{"measurement": "uptake of [3H]GABA when cells treated with inhibitor", "result": "inhibited"}]}
